Experimental data: patent publication US20060069049A1, “Methods and reagents related to foxo” (President and Fellows of Harvard College, priority 2003, published 2006)

Experiments:
[1] = molecular target: Constitutively active FOXO3A constitutively active (AKT phosphorylation sites, residues not stated) (Homo sapiens) (UniProt O43524); assay: cell_activity; conditions: luciferase in adult mouse muscle
[2] = molecular target: Wild-type FOXO3A (Homo sapiens) (UniProt O43524); assay: cell_activity; conditions: luciferase in adult mouse muscle
Chain of Wild-type FOXO3A (Homo sapiens) (O43524 whole entry): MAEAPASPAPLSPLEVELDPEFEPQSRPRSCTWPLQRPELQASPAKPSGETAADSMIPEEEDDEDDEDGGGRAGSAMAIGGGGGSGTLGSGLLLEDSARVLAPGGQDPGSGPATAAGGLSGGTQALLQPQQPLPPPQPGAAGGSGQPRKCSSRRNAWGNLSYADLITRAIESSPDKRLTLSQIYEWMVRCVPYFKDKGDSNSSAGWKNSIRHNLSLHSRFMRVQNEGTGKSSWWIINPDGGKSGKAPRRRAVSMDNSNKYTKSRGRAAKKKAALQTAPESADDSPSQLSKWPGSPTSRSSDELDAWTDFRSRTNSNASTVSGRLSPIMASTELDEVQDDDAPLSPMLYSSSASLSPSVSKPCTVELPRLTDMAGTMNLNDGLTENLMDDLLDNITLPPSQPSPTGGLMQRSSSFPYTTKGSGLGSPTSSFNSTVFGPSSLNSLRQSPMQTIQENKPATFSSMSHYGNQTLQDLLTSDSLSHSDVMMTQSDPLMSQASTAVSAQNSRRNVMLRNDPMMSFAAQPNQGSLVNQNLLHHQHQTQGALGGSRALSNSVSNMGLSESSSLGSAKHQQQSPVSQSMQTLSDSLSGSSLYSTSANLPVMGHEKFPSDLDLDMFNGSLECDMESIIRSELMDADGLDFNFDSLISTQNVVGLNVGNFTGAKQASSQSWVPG

[3] = system: atrogin-1; assay: Northern blot of atrogin-1 mRNA in C2C12 myotubes; format: cell-based, mouse
Procedure: (§1) C2C12 mouse myoblasts (ATCC) were cultured in DMEM 10% FCS (ATCC) until the cells reached confluence. At that time, the medium was replaced with DMEM 2% horse serum (HS) (ATCC) (“differentiation medium”) and incubated for 4 days to induce myotube formation before proceeding with experiments. Pharmacological agents were variously used at the following final concentrations: dexamethasone (1 μM; Sigma), IGF-1 (10 ng/ml; Sigma), LiCl (10 mM; Sigma), LY294002 (10 μM, from 10 mM stock in DMSO, Calbiochem). For infection, myotubes were incubated with adenovirus at a multiplicity of infection (MOI) of 250 in differentiation medium for 18 h, and then medium was replaced. Under these conditions, infection efficiency was greater than 90%. Typical experiments for RNA and protein analysis were performed in 6-well plates. Myotube diameter was quantified as follows: five different fields at 100× magnification were chosen randomly and myotubes were measured using IMAGE software (Scion, Frederick, Md.) as previously performed (Rommel et al., 2001). All data are expressed as the mean of five measurements taken along the length of the myotube±SEM. Comparisons were made using the student's t test, with p<0.05 being considered statistically significant.
After incubation, myotubes were washed in PBS and total RNA was extracted using TRizo1 reagent (Invitrogen) according to the manufacturer's specifications. Northern blotting was performed as described elsewhere (Gomes et al., 2001). Briefly, total RNA was separated on formaldehyde-agarose gels, transferred to Zeta-Probe membrane (Bio-Rad) and UV-crosslinked. Membranes were hybridized with a full length mouse atrogin-1 probe, at 65 ° C., in Church buffer (Church and Gilbert, 1984), and analyzed by using a Fuji Phosphorimager. Blots were stripped and reprobed with a mouse GADPH probe (Ambion) to ensure equal-loading and gel transfer. The relative amounts of the bands were quantified by densitometry.

[4] = system: C2C12 myotubes; assay: Myotube diameter in C2C12 myotube cultures; format: cell-based, mouse; conditions: dexamethasone (1 μM) for 24 hrs
Procedure: as §1

[5] = system: Foxo1, 3 and Foxo4; assay: Immunoblot of phosphorylated Foxo factors in C2C12 myotubes; format: cell-based, mouse
Procedure: (§2) Anti-phospho-AKT (Ser473), anti-phospho-mTOR (Ser2448), anti-phospho-p70S6K (Thr389), anti-phospho-Foxo1 (Ser 256), anti-phospho-Foxo4 (Ser 193), anti-AKT, anti-p70S6K and anti-Foxo1 were purchased from Cell Signaling. Anti-phospho-Foxo3 (Thr32) and the FKHR (Foxo1)-GST fusion protein were from Upstate. All primary antibodies were rabbit potyclonal antibodies. HRP-conjugated goat anti-rabbit antibody was from Promega.
C2C12 mouse myoblasts (ATCC) were cultured in DMEM 10% FCS (ATCC) until the cells reached confluence. At that time, the medium was replaced with DMEM 2% horse serum (HS) (ATCC) (“differentiation medium”) and incubated for 4 days to induce myotube formation before proceeding with experiments. […] Myotube diameter was quantified as follows: five different fields at 100× magnification were chosen randomly and myotubes were measured using IMAGE software (Scion, Frederick, Md.) as previously performed (Rommel et al., 2001). All data are expressed as the mean of five measurements taken along the length of the myotube±SEM. […]
(§3) Myotube protein was also extracted with TRizo1 reagent according to the manufacturer's instructions. Protein concentration was determined by BCA assay (Pierce). […] The relative amounts of the bands were quantified by densitometry using ImageJ software.

[6] = system: S6K; assay: Immunoblot of phosphorylated S6K in C2C12 myotubes; format: cell-based, mouse
Procedure: as §2, §1
as §3, with “(Pierce). SDS-PAGE was performed on 4-12% gradient gels (Novex, Invitrogen) loading 20 μg protein/lane.” for “(Pierce).”

[7] = system: AKT; assay: Immunoblot of phospho-AKT to total AKT in C2C12 myotubes; format: cell-based, mouse; conditions: dexamethasone treatment for 24 hrs, densitometric analysis
Procedure: Myotube protein was also extracted with TRizo1 reagent according to the manufacturer's instructions. Protein concentration was determined by BCA assay (Pierce). SDS-PAGE was performed on 4-12% gradient gels (Novex, Invitrogen) loading 20 μg protein/lane. Westerns were performed as previously (Gomes et al., 2001) and were visualized with ECL detection reagents (Amersham). […] The relative amounts of the bands were quantified by densitometry using ImageJ software.

[8] = system: atrogin-1; conditions: reported from Sacheck et al. (manuscript submitted) or Li et al. 2003a; cited from earlier work
[9] = molecular target: T1, FoxoGST (Homo sapiens, UniProt Q12778); assay: Electrophoretic mobility shift assay with purified FoxoGST; format: binding; conditions: for competition of FoxoGST-IGFBP1 complex formation by unlabeled oligonucleotide: 100-fold molar excess of cold competitor; for binding of FoxoGST to 32P-labeled oligonucleotide: gel shift; for competition of FoxoGST-AT Foxo 1 complex formation: increasing amounts of unlabeled oligonucleotide
T1 construct: purchased Upstate
T1 sequence (Q12778 whole entry): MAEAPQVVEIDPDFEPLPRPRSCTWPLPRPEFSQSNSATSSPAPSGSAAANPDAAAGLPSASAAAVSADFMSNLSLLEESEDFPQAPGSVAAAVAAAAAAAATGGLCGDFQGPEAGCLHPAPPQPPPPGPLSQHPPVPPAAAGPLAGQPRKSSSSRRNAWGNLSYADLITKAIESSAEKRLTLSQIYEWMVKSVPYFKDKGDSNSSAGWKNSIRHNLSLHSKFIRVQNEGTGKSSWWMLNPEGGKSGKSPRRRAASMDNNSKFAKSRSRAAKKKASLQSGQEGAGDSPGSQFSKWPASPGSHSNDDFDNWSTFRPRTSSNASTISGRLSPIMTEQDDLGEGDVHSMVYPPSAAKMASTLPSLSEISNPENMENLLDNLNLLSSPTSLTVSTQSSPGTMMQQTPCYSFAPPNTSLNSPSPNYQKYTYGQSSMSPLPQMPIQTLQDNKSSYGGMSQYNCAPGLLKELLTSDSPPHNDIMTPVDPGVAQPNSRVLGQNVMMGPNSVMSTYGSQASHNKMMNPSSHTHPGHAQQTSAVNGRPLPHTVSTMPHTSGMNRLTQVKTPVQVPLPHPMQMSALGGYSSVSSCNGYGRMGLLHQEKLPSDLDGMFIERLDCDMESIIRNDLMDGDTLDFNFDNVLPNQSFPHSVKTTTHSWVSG
From the text: Double stranded oligonucleotides were labeled by T4 Polynucleotide kinase and […] (Promega). The following pairs of oligonucleotides were used (Forkhead sites are underlined): IGFBP1: 5′-[…]-3′ (SEQ ID NO:9) and 5′-[…] (SEQ ID NO:10); SP 1:5′-[…]-3′ (SEQ ID NO:11) and 5′[…]-3′ (SEQ ID NO:12); ATFoxo 1: 5′-GGGATAAATACT-GTGCTCGGGCAG-3′ (SEQ ID NO:13) and 5′-[…]-3′ (SEQ ID NO:14). ATFoxo 1mut: 5′-[…]-3′ (SEQ ID NO:15) and 5′ […]-3′ (SEQ ID NO:16). Reactions using the Gel Shift Assay System (Promega) contained the cold competitor (100-fold molar excess over labeled oligonucleotide) and 1 μl of purified FoxoGST (Upstate), and were incubated at room temperature for 10 min. The samples were then mixed with ^32P-labeled oligonucleotides for 20 min and loaded on Novex 6% DNA retardation gels (Invitrogen). After electrophoresis the gels were dried and analyzed using a Fuji Phosphorimager system.

Chain of Constitutively active FOXO3A constitutively active (AKT phosphorylation sites, residues not stated) (Homo sapiens) (O43524 whole entry): as the sequence (O43524 whole entry) above

3.5 kb atrogin-1 promoter
activity [1]: > 20 fold | activity [2]: 3 fold

[Cl-].[Li+] [LiCl, reference compound]
effect on atrogin-1 induction by dexamethasone ([3]; myotubes, 1 μM dexamethasone 24 hrs): unable to decrease

C[C@@H]1C[C@H]2[C@@H]3CCC4=CC(=O)C=C[C@]4(C)[C@@]3(F)[C@@H](O)C[C@]2(C)[C@@]1(O)C(=O)CO [dexamethasone, reference compound]
increase in atrogin-1 mRNA content ([3]; cultured myotubes treated with dexamethasone (1 μM) for 24 hrs): 2-3 fold | reduction in mean myotube diameter [4]: 40% | decrease in levels of phosphorylated Foxo1 and 3 ([5]; glucocorticoid treatment 24 hrs): at least 30% | decrease in level of phosphorylated S6K ([6]; dexamethasone treatment 24 hrs): 10% | fall in ratio of phospho-AKT to total AKT [7]: 30%

OO [hydrogen peroxide]
effect on atrogin-1 expression in myotubes [8]: expression of atrogin-1 rose

ATFoxo 1: double stranded oligonucleotide with atrogin-1 promoter forkhead site ATAAATA (SEQ ID NO:13/14) (chain 1 GGGATAAATACTGTGCTCGGGCAG; chain 2 CTGCCCGAGCACAGTATTTATCCC; listed as DNA, chemistry not fully specified)
competition of FoxoGST-IGFBP1 complex formation by unlabeled oligonucleotide [9]: markedly reduced | binding of FoxoGST to 32P-labeled oligonucleotide [9]: bound | competition of FoxoGST-AT Foxo 1 complex formation [9]: able to block

ATFoxo 1mut: mutated version of the site, ATCACTA (SEQ ID NO:15/16) (chain 1 GGGATCACTACTGTGCTCGGGCAG; chain 2 CTGCCCGAGCACAGTAGTGATCCC; listed as DNA, chemistry not fully specified)
competition of FoxoGST-IGFBP1 complex formation by unlabeled oligonucleotide [9]: did not prevent complex formation | binding of FoxoGST to 32P-labeled oligonucleotide [9]: did not bind | competition of FoxoGST-AT Foxo 1 complex formation [9]: not

IGF-1: insulin-like growth factor-1, used at 10 ng/ml (Sigma)
effect on atrogin-1 mRNA in either model of atrophy ([3]; IGF-1 10 ng/ml added to starved (6 hrs) or dexamethasone-treated (24 hrs) myotubes): suppressed atrogin-1 mRNA to the level in untreated myotubes | effect of IGF-1 on atrogin-1 mRNA ([3]; cells expressing the constitutively active Foxo3): did not reduce | decrease in atrogin-1 mRNA content by IGF-1 ([3]; cells expressing the wild type Foxo3, IGF-1 10 ng/ml): 3 fold | effect on phosphorylated Foxo1, 3 and 4 in either model of atrophy ([5]; IGF-1 10 ng/ml, starved or dexamethasone-treated myotubes): increased the levels of phosphorylated Foxo1, 3, and 4 | S6K phosphorylation after IGF-1 addition ([6]; dexamethasone-treated cultures): restored S6K phosphorylation | S6K phosphorylation after IGF-1 addition ([6]; starved cells): remained largely dephosphorylated

oligonucleotide containing an SP1 binding site: unrelated oligonucleotide containing an SP1 binding site (SEQ ID NO:11/12) (chain 1 ATTCGATCGGGGCGGGGCGAG; chain 2 CTCGCCCCGCCCCGATCGTAA; listed as DNA, chemistry not fully specified) [reference compound]
competition of FoxoGST-IGFBP1 complex formation by unlabeled oligonucleotide [9]: did not prevent complex formation

B1: IGFBP1 oligonucleotide: control oligonucleotide containing a known forkhead site from the IGFBP1 promoter (SEQ ID NO:9/10) (nucleic acid)
chain 1: CTAGCAAGCAAAACAAACTTATTTTGAACACGGGG
chain 2: CCCCGTGTTCAAAATAAGTTTGTTTTGCTTGCTAG
modifications: listed as DNA, chemistry not fully specified
competition of FoxoGST-IGFBP1 complex formation by unlabeled oligonucleotide [9]: prevented formation | binding of FoxoGST to 32P-labeled oligonucleotide [9]: bound
